{"source": "PubChem BioAssay AID2060487", "about": "(Molecular Pharmacology Branch, DTP, NCI, 2025);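 note: spheroids exposed to the agents for 7 days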;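 for viability, T/C: 100% = DMSO vehicle control viability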", "system": "997537-175-T-J1-PDC complex spheroid viability", "assay": "Anticancer human tumor 997537-175-T-J1-PDC patient-derived colon adenocarcinoma cell line growth inhibition [GQUAD]", "settings": "for IC50: curve of first compound; for viability, T/C: stronger effect = lower value", "outline": "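Multi-cell-type spheroids of tumor cells with HUVEC and mesenchymal stem cells, treated with drug combinations. Concentrations descend in half-log steps from near clinical Cmax, or from 10 microM where Cmax is unknown; viability read-out.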"}
{"smiles": "COc1ncnc(C2CC2)c1-c1ncc2cnn(Cc3ccc(-c4nc(C(F)(F)F)cn4C(C)C)cc3)c2n1", "note": "+ Cc1[nH]c2ccc(F)cc2c1-c1nc2c3cccnc3c3ncccc3c2[nH]1", "values": [{"measurement": "IC50", "setting": "second compound 0.0316 µM", "result": 9.19, "unit": "µM"}, {"measurement": "IC50", "setting": "second compound 0.1 µM", "result": "> 10", "unit": "µM"}, {"measurement": "IC50", "setting": "second compound 0.316 µM", "result": "> 10", "unit": "µM"}, {"measurement": "IC50", "setting": "second compound 1 µM", "result": 9.26, "unit": "µM"}, {"measurement": "IC50", "setting": "second compound 3.16 µM", "result": 8.15, "unit": "µM"}, {"measurement": "IC50", "setting": "second compound 10 µM", "result": "> 10", "unit": "µM"}, {"measurement": "viability, T/C", "setting": "second compound 0.0316 µM, first compound 0.0316 µM", "result": 100, "unit": "%"}, {"measurement": "viability, T/C", "setting": "second compound 0.0316 µM, first compound 0.1 µM", "result": 98.9, "unit": "%"}, {"measurement": "viability, T/C", "setting": "second compound 0.0316 µM, first compound 0.316 µM", "result": 103, "unit": "%"}, {"measurement": "viability, T/C", "setting": "second compound 0.0316 µM, first compound 1 µM", "result": 93.1, "unit": "%"}, {"measurement": "viability, T/C", "setting": "second compound 0.0316 µM, first compound 3.16 µM", "result": 98.8, "unit": "%"}, {"measurement": "viability, T/C", "setting": "second compound 0.0316 µM, first compound 10 µM", "result": 46.2, "unit": "%"}, {"measurement": "viability, T/C", "setting": "second compound 0.1 µM, first compound 0.0316 µM", "result": 100, "unit": "%"}, {"measurement": "viability, T/C", "setting": "second compound 0.1 µM, first compound 0.1 µM", "result": 107, "unit": "%"}, {"measurement": "viability, T/C", "setting": "second compound 0.1 µM, first compound 0.316 µM", "result": 102, "unit": "%"}, {"measurement": "viability, T/C", "setting": "second compound 0.1 µM, first compound 1 µM", "result": 96.3, "unit": "%"}, {"measurement": "viability, T/C", "setting": "second compound 0.1 µM, first compound 3.16 µM", "result": 87.9, "unit": "%"}, {"measurement": "viability, T/C", "setting": "second compound 0.1 µM, first compound 10 µM", "result": 70.5, "unit": "%"}, {"measurement": "viability, T/C", "setting": "second compound 0.316 µM, first compound 0.0316 µM", "result": 104, "unit": "%"}, {"measurement": "viability, T/C", "setting": "second compound 0.316 µM, first compound 0.1 µM", "result": 101, "unit": "%"}, {"measurement": "viability, T/C", "setting": "second compound 0.316 µM, first compound 0.316 µM", "result": 100, "unit": "%"}, {"measurement": "viability, T/C", "setting": "second compound 0.316 µM, first compound 1 µM", "result": 96.7, "unit": "%"}, {"measurement": "viability, T/C", "setting": "second compound 0.316 µM, first compound 3.16 µM", "result": 91.8, "unit": "%"}, {"measurement": "viability, T/C", "setting": "second compound 0.316 µM, first compound 10 µM", "result": 50.9, "unit": "%"}, {"measurement": "viability, T/C", "setting": "second compound 1 µM, first compound 0.0316 µM", "result": 91.7, "unit": "%"}, {"measurement": "viability, T/C", "setting": "second compound 1 µM, first compound 0.1 µM", "result": 103, "unit": "%"}, {"measurement": "viability, T/C", "setting": "second compound 1 µM, first compound 0.316 µM", "result": 101, "unit": "%"}, {"measurement": "viability, T/C", "setting": "second compound 1 µM, first compound 1 µM", "result": 93, "unit": "%"}, {"measurement": "viability, T/C", "setting": "second compound 1 µM, first compound 3.16 µM", "result": 92.8, "unit": "%"}, {"measurement": "viability, T/C", "setting": "second compound 1 µM, first compound 10 µM", "result": 46.8, "unit": "%"}, {"measurement": "viability, T/C", "setting": "second compound 3.16 µM, first compound 0.0316 µM", "result": 83.1, "unit": "%"}, {"measurement": "viability, T/C", "setting": "second compound 3.16 µM, first compound 0.1 µM", "result": 86.5, "unit": "%"}, {"measurement": "viability, T/C", "setting": "second compound 3.16 µM, first compound 0.316 µM", "result": 87.2, "unit": "%"}, {"measurement": "viability, T/C", "setting": "second compound 3.16 µM, first compound 1 µM", "result": 84.2, "unit": "%"}, {"measurement": "viability, T/C", "setting": "second compound 3.16 µM, first compound 3.16 µM", "result": 76.7, "unit": "%"}, {"measurement": "viability, T/C", "setting": "second compound 3.16 µM, first compound 10 µM", "result": 44.2, "unit": "%"}, {"measurement": "viability, T/C", "setting": "second compound 10 µM, first compound 0.0316 µM", "result": 85.3, "unit": "%"}, {"measurement": "viability, T/C", "setting": "second compound 10 µM, first compound 0.1 µM", "result": 87.8, "unit": "%"}, {"measurement": "viability, T/C", "setting": "second compound 10 µM, first compound 0.316 µM", "result": 89.1, "unit": "%"}, {"measurement": "viability, T/C", "setting": "second compound 10 µM, first compound 1 µM", "result": 89.5, "unit": "%"}, {"measurement": "viability, T/C", "setting": "second compound 10 µM, first compound 3.16 µM", "result": 72.9, "unit": "%"}, {"measurement": "viability, T/C", "setting": "second compound 10 µM, first compound 10 µM", "result": 59.6, "unit": "%"}]}
